Reference: US12600705B2, “Heat shock protein modulators and anti-Huntington disease therapeutic agents” (UNIVERSITY OF PITTSBURGH-OF THE COMMONWEALTH SYSTEM OF …, priority 2020, dated 2026)

Legend:
[1] = target: HDAC 4 human recombinant enzyme (Homo sapiens, UniProt P56524); assay: HDAC 4 assay (BPS Bioscience kit); settings: Compound tested at 1 uM
Experimental: (§1) For HDAC 4-8 assays, kits from BPS Bioscience (https://bpsbioscience.com/) were used and their recommended protocols followed. […] Each compound was dissolved in DMSO to generate a 100 μM stock solution, then diluted using HPLC-grade water to prepare 10 μM, 2 μM, and 1 μM solutions. These solutions were used for the assays. […] Assays utilized a BioTek Synergy H1 microplate reader and black Nunc MicroWell 96-well optical-bottom plates with polymer base.
(§2) HDAC 4 (and, by analogy, HDAC 5, 6, 7, and 8): 40 μL of the parent solution was added to each well on the plate. The parent solution was prepared from a fluorogenic HDAC substrate, a 1 mg/mL solution of bovine serum albumin (BSA) in water, and HDAC assay buffer. 5 μL of the inhibitor buffer (10% DMSO in water) was added to the wells designated as “Blank” and “Positive Control” (no inhibitor). 5 μL of the test compound was added to each well designated as “Test Inhibitor”. Different concentrations of TSA (for a standard curve) was added to each well designated as “Standard.” 5 μL of HDAC assay buffer was added to the “Blank” wells. […] Afterwards, the plate was analyzed using a BioTek Synergy H1 microplate reader, taking two independent readings per well that were subsequently averaged.

HDAC 5 = HDAC 5 (Homo sapiens, UniProt Q9UQL6); assay: HDAC 5 assay (BPS Bioscience kit)
Experimental: as §1, §2

HDAC 6 = target: T1, HDAC 6 (Homo sapiens, UniProt Q9UBN7); assay: HDAC 6 assay (BPS Bioscience kit); settings: footnotes b,c: tested at 200 nM; 100 nM; variable, average of 2 independent measurements
T1 sequence (Q9UBN7 1-1215): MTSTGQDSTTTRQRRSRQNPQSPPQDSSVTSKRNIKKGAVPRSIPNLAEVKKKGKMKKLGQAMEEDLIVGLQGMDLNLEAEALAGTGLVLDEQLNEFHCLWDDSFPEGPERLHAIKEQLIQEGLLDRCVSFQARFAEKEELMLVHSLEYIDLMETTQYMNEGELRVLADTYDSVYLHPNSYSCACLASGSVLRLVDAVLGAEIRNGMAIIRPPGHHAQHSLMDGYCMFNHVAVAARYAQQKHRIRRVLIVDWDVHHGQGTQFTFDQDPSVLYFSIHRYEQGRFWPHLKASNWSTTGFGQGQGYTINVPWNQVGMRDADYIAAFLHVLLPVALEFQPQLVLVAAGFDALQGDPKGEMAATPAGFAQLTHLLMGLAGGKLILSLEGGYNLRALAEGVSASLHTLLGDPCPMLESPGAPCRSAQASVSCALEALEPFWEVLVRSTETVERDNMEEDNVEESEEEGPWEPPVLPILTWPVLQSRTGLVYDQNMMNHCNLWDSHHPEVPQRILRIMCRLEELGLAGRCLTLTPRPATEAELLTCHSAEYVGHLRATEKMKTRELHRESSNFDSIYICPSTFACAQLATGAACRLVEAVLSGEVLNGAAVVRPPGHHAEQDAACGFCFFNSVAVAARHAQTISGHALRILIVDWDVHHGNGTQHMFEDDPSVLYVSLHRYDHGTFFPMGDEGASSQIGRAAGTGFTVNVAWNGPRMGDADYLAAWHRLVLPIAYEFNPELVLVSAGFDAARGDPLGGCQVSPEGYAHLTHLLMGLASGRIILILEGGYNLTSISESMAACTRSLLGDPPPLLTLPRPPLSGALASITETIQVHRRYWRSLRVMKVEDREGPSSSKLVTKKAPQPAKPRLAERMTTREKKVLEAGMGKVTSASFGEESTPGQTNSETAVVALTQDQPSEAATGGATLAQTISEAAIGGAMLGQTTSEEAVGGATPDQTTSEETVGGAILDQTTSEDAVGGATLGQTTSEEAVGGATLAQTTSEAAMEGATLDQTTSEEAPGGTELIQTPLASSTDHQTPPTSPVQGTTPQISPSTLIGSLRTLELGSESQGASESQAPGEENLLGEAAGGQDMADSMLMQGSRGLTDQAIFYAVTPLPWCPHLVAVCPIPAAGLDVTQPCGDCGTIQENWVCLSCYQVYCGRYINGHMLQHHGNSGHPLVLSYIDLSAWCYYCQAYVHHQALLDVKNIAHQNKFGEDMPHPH
Experimental: as §1
(§3) HDAC 4 (and, by analogy, HDAC 5, 6, 7, and 8): 40 μL of the parent solution was added to each well on the plate. The parent solution was prepared from a fluorogenic HDAC substrate, a 1 mg/mL solution of bovine serum albumin (BSA) in water, and HDAC assay buffer. 5 μL of the inhibitor buffer (10% DMSO in water) was added to the wells designated as “Blank” and “Positive Control” (no inhibitor). 5 μL of the test compound was added to each well designated as “Test Inhibitor”. Different concentrations of TSA (for a standard curve) was added to each well designated as “Standard.” 5 μL of HDAC assay buffer was added to the “Blank” wells. Then, 5 μL of HDAC 4 human recombinant enzyme was added to the wells designated as “Positive Control”, “Test Inhibitor”, and “Standard.” The plate was then warmed in an incubator at 37° C. with a rocker platform for 30 min After the incubation, 50 μL of 2×HDAC Developer solution was added to each well. The plate was returned to the incubator and was shaken on the rocker for an additional 15 min. at room temperature. Afterwards, the plate was analyzed using a BioTek Synergy H1 microplate reader, taking two independent readings per well that were subsequently averaged.

HDAC 7 = target: T2, HDAC 7 (Homo sapiens, UniProt Q8WUI4); assay: HDAC 7 assay (BPS Bioscience kit)
T2 sequence (Q8WUI4 1-952): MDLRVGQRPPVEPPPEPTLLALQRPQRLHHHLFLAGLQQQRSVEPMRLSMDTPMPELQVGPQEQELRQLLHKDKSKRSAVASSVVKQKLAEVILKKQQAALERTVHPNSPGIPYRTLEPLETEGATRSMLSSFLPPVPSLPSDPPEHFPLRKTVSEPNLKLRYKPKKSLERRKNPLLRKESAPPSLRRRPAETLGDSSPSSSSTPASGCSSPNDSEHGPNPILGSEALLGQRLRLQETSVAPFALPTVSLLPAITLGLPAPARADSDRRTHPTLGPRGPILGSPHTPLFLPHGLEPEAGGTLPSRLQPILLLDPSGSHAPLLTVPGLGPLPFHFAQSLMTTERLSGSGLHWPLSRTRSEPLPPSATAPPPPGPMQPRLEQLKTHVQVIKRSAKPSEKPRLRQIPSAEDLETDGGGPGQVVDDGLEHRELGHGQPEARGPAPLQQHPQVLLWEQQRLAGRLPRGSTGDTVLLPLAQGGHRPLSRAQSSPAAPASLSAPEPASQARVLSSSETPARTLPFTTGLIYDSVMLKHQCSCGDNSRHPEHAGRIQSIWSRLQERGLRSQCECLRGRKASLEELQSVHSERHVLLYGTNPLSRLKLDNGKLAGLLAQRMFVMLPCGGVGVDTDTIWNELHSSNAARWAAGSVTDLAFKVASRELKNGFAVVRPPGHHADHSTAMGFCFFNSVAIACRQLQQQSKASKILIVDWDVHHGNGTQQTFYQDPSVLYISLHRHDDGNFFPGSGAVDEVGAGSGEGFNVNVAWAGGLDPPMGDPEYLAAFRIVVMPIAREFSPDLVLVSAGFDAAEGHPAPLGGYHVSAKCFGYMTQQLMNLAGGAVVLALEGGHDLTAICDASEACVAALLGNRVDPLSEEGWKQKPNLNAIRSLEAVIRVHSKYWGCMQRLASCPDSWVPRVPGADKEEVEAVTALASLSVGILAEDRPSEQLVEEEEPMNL
Experimental: as §1, §2

HDAC 8 = target: T3, HDAC 8 (Homo sapiens, UniProt Q9BY41); assay: HDAC 8 assay (BPS Bioscience kit); settings: footnotes a,c: tested at 1 uM; 100 nM; average of 2 independent measurements
T3 sequence (Q9BY41 1-377): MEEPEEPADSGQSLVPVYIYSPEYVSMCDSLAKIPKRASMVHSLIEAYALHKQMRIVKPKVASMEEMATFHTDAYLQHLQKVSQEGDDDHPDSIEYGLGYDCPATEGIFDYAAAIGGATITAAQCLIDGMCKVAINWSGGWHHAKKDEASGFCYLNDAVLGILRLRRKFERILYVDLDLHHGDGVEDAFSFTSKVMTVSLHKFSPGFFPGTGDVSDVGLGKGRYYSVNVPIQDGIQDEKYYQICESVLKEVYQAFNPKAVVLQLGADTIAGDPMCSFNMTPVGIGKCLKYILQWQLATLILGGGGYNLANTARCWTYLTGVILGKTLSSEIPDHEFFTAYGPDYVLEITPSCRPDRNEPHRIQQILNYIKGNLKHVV
Experimental: as §1, §3

HDAC 1-3 = HDAC 1-3 assay (BioVision kit, HeLa nuclear extract); settings: Compound tested at 1 uM
Experimental: For HDAC 1-3 assays, kits from BioVision Incorporated (https://www.biovision.com/) were used and their recommended protocols followed. […] Each compound was dissolved in DMSO to generate a 100 μM stock solution, then diluted using HPLC-grade water to prepare 10 μM, 2 μM, and 1 μM solutions. These solutions were used for the assays. […] Assays utilized a BioTek Synergy H1 microplate reader and black Nunc MicroWell 96-well optical-bottom plates with polymer base.
HDAC 1-3: 10 μL of each diluted compound (10 μM) and 40 μL of HPLC-grade water were mixed and added into a well on the plate. […] Then, 50 μL of the reaction mixture was added to each well and the solution was mixed thoroughly. The reaction mixture consisted of 500 μL of 10×HDAC Assay buffer, 100 μL of HeLa nuclear extract, 250 μL of HDAC substrate, and 1.65 mL of HPLC-grade water. The plate was then warmed in an incubator at 37° C. with a rocker platform and was incubated for 30 min. After the incubation, 10 μL of Lysine Developer solution was added to each well. The plate was kept in the incubator for an additional 30 min. Afterwards, the plate was analyzed using a BioTek Synergy H1 microplate reader, taking two independent readings per well that were subsequently averaged.

[2] = system: HEK293 cells that express an HTT exon containing 17 glutamine repeats (HTT17Q-mCherry); assay: Huntington's Disease (HD) model: protein aggregates (puncta) per cell in HEK293H cells transfected with HTT17Q-mCherry; settings: for Effect on aggregate suppression compared to the MAL1-271 positive control: Example 1, FIG. 2, 10 μM compound, 6 h; for Activity in cell based HD assay (active analogs of Hsp70 agonist): summary of Example 1
Experimental: Cells were stained for confocal microscope imaging with 4′,6-diamidino-2-phenylindole (DAPI), a fluorescent dye with high affinity to adenine-thymine rich DNA regions. A bright spot detection tool was used to identify and quantify the number of protein aggregates (“dots”) per cell.
Biological Assays: For HD assays, HEK293H cells were grown in DMEM (Sigma-Aldrich, Saint Louis, MO) supplemented with 10% fetal bovine serum (GE Healthcare Hyclone) and 1% penicillin/streptomycin (Thermo Fisher Scientific, Waltham, MA) at 37° C. and at a 5% CO2 atmosphere. Cells were seeded at 250,000 cells/plate in Poly-D-Lysine Coated 35 mm MatTek dishes (P35GC-1.5-10-C, MatTek Corporation, Ashland, MA). After 24 h growth, a total of 4 μg of mCherry tagged-polyglutamine-expanded (17-polyQ-expanded) huntingtin (HTT) was introduced using Lipofectamine 2000 (Invitrogen, Thermo Fisher Scientific) according to the manufacturer's instructions. […] The following day, cells were treated with vehicle (DMSO) as control or with 10 μM of the examined compounds for 6 h. The cells were then washed with PBS and fixed in 4% formaldehyde for 15 min at room temperature. Finally, cells were stained with DAPI (1:250 in PBS) for 4 h and maintained in PBS for confocal microscope imaging.
Complete volumes of cells were acquired at 0.5-μm steps, and volumes were reconstructed and analyzed using Nikon's NIS-Elements software (Nikon Instrument, Melville, NY). Bright spot detection tool was used to identify and quantify the number of protein aggregates (“dots”) per cell. A non-parametric Kruskal-Wallis test analysis was performed using Prism software (GraphPad, La Jolla, CA). Statistically significant differences between control (DMSO) and compound treated samples are indicated by asterisks in figure. To obtain representative images from this experiment, maximum intensity projections of 0.5-μm steps though the entire cell were generated using Nikon's NIS-Elements software.
Cells were stained for confocal microscope imaging with 4′,6-diamidino-2-phenylindole (DAPI) and bright spot detection tool was used to identify and quantify the number of protein aggregates (“dots”) per cell.

Chain of HDAC 4 human recombinant enzyme (P56524 whole entry): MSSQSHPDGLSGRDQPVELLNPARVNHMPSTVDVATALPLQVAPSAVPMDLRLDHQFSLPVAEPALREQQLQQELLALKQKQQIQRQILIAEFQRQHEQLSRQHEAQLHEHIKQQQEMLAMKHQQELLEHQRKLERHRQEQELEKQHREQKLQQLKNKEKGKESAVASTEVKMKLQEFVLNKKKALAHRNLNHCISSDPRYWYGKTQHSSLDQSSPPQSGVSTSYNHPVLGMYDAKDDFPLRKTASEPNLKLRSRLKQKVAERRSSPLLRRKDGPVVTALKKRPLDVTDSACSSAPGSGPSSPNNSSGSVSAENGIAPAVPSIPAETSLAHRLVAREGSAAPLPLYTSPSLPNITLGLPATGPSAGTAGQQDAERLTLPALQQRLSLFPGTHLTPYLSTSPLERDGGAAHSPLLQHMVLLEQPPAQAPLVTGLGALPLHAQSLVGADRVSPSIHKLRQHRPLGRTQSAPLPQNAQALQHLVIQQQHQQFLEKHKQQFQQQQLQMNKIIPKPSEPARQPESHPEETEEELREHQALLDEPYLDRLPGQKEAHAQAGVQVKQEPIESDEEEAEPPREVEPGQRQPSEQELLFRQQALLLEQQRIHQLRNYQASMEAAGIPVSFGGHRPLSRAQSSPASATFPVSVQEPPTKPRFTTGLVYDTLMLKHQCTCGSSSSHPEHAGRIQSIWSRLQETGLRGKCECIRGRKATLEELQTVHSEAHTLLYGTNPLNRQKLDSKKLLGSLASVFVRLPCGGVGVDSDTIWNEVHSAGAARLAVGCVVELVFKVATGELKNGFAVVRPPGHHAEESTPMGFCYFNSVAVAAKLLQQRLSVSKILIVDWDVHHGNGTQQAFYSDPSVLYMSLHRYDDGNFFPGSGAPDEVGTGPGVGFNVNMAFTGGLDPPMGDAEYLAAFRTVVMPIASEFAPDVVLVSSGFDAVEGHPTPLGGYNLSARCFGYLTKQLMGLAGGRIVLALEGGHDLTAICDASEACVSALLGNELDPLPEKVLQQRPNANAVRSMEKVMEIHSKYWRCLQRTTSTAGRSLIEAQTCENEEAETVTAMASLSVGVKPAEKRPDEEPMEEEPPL
Chain of HDAC 5 (Q9UQL6 whole entry): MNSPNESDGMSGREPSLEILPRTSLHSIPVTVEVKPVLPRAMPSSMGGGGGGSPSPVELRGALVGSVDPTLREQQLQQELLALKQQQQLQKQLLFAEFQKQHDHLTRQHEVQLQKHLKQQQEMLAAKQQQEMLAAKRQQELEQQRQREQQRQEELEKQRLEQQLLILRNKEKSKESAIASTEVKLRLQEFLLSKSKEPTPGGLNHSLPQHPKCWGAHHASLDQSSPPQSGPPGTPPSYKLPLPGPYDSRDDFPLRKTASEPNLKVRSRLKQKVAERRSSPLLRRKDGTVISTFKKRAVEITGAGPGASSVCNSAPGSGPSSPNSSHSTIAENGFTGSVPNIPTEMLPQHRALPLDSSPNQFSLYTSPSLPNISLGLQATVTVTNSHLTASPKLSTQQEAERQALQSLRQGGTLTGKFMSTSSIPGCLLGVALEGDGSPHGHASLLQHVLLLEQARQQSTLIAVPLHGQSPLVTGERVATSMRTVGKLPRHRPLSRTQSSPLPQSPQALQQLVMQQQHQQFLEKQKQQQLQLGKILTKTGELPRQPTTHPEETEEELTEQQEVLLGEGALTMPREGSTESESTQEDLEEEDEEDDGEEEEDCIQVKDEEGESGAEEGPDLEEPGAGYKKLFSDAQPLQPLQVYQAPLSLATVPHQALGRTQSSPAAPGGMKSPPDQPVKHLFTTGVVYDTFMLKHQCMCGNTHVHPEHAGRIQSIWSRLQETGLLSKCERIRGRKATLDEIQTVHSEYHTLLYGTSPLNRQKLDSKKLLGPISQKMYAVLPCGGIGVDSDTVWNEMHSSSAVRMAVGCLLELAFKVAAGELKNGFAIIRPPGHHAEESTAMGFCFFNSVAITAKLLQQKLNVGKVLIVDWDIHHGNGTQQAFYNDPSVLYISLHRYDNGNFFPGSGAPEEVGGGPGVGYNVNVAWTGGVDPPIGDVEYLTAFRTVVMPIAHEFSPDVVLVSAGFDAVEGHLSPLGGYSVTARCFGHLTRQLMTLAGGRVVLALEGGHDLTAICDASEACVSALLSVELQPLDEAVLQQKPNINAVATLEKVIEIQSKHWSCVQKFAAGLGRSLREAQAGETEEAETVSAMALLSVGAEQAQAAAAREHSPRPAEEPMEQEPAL

SMILES | Percent inhibition HDAC 4 [1] | Percent inhibition HDAC 5 (HDAC 5; Compound tested at 200 nM) | Percent inhibition HDAC 6 (HDAC 6) | inhibition at 0.1 µM (HDAC 7; read-out: Percent inhibition HDAC 7) [%] | Percent inhibition HDAC 8 (HDAC 8) [%^e] | Percent inhibition HDAC 1-3 (HDAC 1-3) | Effect on aggregate suppression compared to the MAL1-271 positive control [2] | Activity in cell based HD assay (active analogs of Hsp70 agonist) [2] | inhibition at 0.2 µM (HDAC 5; read-out: Percent inhibition HDAC 5) [%] | Percent inhibition HDAC 7 (HDAC 7; Compound tested at 100 nM)
COC(=O)CCCN1C=C(C(=O)O)C(c2ccc(Cl)cc2Cl)NS1(=O)=O (stereo not shown) [Compound 10g, 3-(2,4-Dichlorophenyl)-6-(4-methoxy-4-oxobutyl)-3,6-dihydro-2H-1,2,6-thiadiazine-4-carboxylic acid 1,1-dioxide] | NIA | NIA | NIA | 1 | 60 | NIA | equally effective | active | – | –
CCOC(=O)C1=CNS(=O)(=O)N(Cc2ccc(C(=O)O)cc2)C1c1ccc(Cl)cc1Cl (stereo not shown) [Compound 10i, 4-((3-(2,4-Dichlorophenyl)-4-(ethoxycarbonyl)-1,1-dioxido-3,6-dihydro-2H-1,2,6-thiadiazin-2-yl)methyl)benzoic acid] | NIA | – | 40%^d | – | 37 | NIA | equally effective | active | 9 | NIA
